Values joined by “and” are separate entries in the source; they are usually repeats but may differ in a detail not shown here. Equal entries are not always repeated.
Conditions: Liquid; for mass density: 101.33 kPa

CCCCn1cc[n+](C)c1.F[P-](F)(F)(F)(F)F [1-butyl-3-methylimidazolium hexafluorophosphate]
Conditions | mass density
273.1 K | 1388.85 kg/m3
278.1 K | 1384.55 kg/m3
283.1 K | 1380.27 kg/m3
288.15 K | 1375.99 kg/m3
293.15 K | 1371.72 kg/m3
298.15 K | 1367.45 kg/m3
303.15 K | 1363.19 kg/m3
313.15 K | 1354.95 kg/m3 and 1354.96 kg/m3
323.15 K | 1346.75 kg/m3
333.15 K | 1338.58 kg/m3
343.15 K | 1330.45 kg/m3
353.15 K | 1322.38 kg/m3
363.15 K | 1314.36 kg/m3

Conditions | viscosity
273.15 K, 100 kPa | 1717 mPa·s
278.15 K, 100 kPa | 1119 mPa·s
283.15 K, 100 kPa | 755 mPa·s
288.15 K, 100 kPa | 521 mPa·s
293.15 K, 100 kPa | 369 mPa·s
298.15 K, 100 kPa | 271 mPa·s and 273 mPa·s
298.15 K, 12100 kPa | 329 mPa·s
298.15 K, 24700 kPa | 391 mPa·s
298.15 K, 25700 kPa | 390 mPa·s
298.15 K, 50600 kPa | 546 mPa·s
298.15 K, 75800 kPa | 761 mPa·s
298.15 K, 100300 kPa | 1047 mPa·s
298.15 K, 125100 kPa | 1432 mPa·s
298.15 K, 125600 kPa | 1461 mPa·s
298.15 K, 150300 kPa | 1995 mPa·s
298.15 K, 174100 kPa | 2694 mPa·s
303.15 K, 100 kPa | 202 mPa·s
308.15 K, 100 kPa | 158.4 mPa·s
308.15 K, 900 kPa | 159.7 mPa·s
308.15 K, 9600 kPa | 179.1 mPa·s
308.15 K, 25800 kPa | 221 mPa·s
308.15 K, 50300 kPa | 302 mPa·s
308.15 K, 75600 kPa | 412 mPa·s
308.15 K, 100300 kPa | 557 mPa·s
308.15 K, 125200 kPa | 750 mPa·s
308.15 K, 140600 kPa | 898 mPa·s
308.15 K, 151000 kPa | 1016 mPa·s
313.15 K, 100 kPa | 120 mPa·s
323.15 K, 100 kPa | 73.6 mPa·s and 74.1 mPa·s and 74.9 mPa·s
323.15 K, 1300 kPa | 74.9 mPa·s
323.15 K, 3100 kPa | 76.9 mPa·s
323.15 K, 5600 kPa | 78.2 mPa·s
323.15 K, 10700 kPa | 82.7 mPa·s
323.15 K, 25800 kPa | 98.9 mPa·s
323.15 K, 50800 kPa | 127.8 mPa·s
323.15 K, 75800 kPa | 173.5 mPa·s
323.15 K, 100700 kPa | 224 mPa·s
323.15 K, 125500 kPa | 281 mPa·s
323.15 K, 150400 kPa | 371 mPa·s
323.15 K, 175200 kPa | 481 mPa·s
323.15 K, 200000 kPa | 616 mPa·s
323.15 K, 224600 kPa | 784 mPa·s
323.15 K, 249300 kPa | 995 mPa·s
333.15 K, 100 kPa | 49.5 mPa·s [middle of 4 runs]
333.15 K, 10700 kPa | 55.8 mPa·s
333.15 K, 26200 kPa | 66 mPa·s
333.15 K, 51100 kPa | 85.6 mPa·s
333.15 K, 75700 kPa | 109.8 mPa·s
333.15 K, 91100 kPa | 128 mPa·s
333.15 K, 100100 kPa | 139.4 mPa·s
343.15 K, 100 kPa | 35.1 mPa·s and 34.7 mPa·s and 34.6 mPa·s
343.15 K, 5500 kPa | 37.2 mPa·s
343.15 K, 10600 kPa | 39.2 mPa·s
343.15 K, 25700 kPa | 45.6 mPa·s
343.15 K, 50600 kPa | 58 mPa·s
343.15 K, 75600 kPa | 73.7 mPa·s
343.15 K, 100600 kPa | 92.9 mPa·s
343.15 K, 125400 kPa | 116.2 mPa·s
343.15 K, 140200 kPa | 132.6 mPa·s
343.15 K, 149900 kPa | 144.4 mPa·s
343.15 K, 172900 kPa | 176.1 mPa·s
353.15 K, 100 kPa | 25.5 mPa·s

From the NIST ThermoML archive (doi:10.1021/je050147b)
